# Values quoted from earlier work, collected in patent US10548835B2, “Methods of reducing the signs of skin aging” (Kimberly-Clark Worldwide, Inc., priority 2014, dated 2020).
# Test system: 3T3-L1 cells
# Conditions: literature
substance,measurement,value
Fucoidan,adipogenesis (adipocyte differentiation),inhibit adipogenesis
